Test results reported in article PMC12195677, “In Vitro Effect of Ferruginol, Tanshinone, and Carnosol Analogues on the Proliferation of Three Breast Cancer Cell Lines” (Molecules, 2025).

Columns and labels:
human BJ fibroblasts = details: read-out: Cytotoxicity IC50, BJ; non-neoplastic human BJ fibroblasts, 72 h, CellTiter-Glo, mean ± SD; cited from earlier work
MDA-MB231 = details: cited from earlier work; for TI (therapeutic index) MDA-MB231: EC50 BJ fibroblasts / EC50 MDA-MB231; for IC50: read-out: Cytotoxicity IC50, MDA-MB231, 72 h incubation, CellTiter-Glo, mean ± SD
[1] = tested on: MDA-MB231 breast cancer cells; assay: Cell morphology by brightfield microscopy; format: cell-based, Human; details: 24 h treatment, brightfield 10×; 1 and 6 at 5 μM, 10 at 10 μM
From the text: Brightfield microscopy images of MDA-MB231 breast cancer cells are indicated in Figure 6 to highlight the morphological changes that occur upon treatment with compounds 1, 6, and 10 as representative compounds. […] The precise mechanism of cell death for other compounds remained unclear.
Representative images were collected using 10× objective with a Leica DMi1 Microscope (Leica microsystems, Wetzlar, Germany). MDA-MB231 cells were imaged with a vehicle as the negative control, staurosporine as the positive control (2 μM), or compounds with results shown in representative images for 24 h.

SUM149 = details: cited from earlier work; for IC50: read-out: Cytotoxicity IC50, SUM149, 72 h incubation, CellTiter-Glo, mean ± SD
SUM149 cells = assay: Colony formation (clonogenic) assay, SUM149; format: cell-based, Human; details: 10 μM
Method: Further evaluation of various promising compounds using breast cancer cells included analysis of colony-forming inhibition capabilities and investigations into their specific mechanistic pathways of action. Thus, the anchorage-dependent colony formation assay, also known as the clonogenic assay, was conducted. This method in cancer research evaluates the ability of single cells to grow into colonies when attached to a surface and can measure a cell’s ability to undergo “unlimited” division and form a colony (usually defined as ≥50 cells).
The clonogenic assay offers comprehensive insights into the compound’s overall efficacy and is regarded as the definitive method for assessing post-treatment reproductive cell death (both cytotoxic and cytostatic effects). The extended duration of the experiment simultaneously provides valuable data on the compounds’ stability over time, which are not detected in short-term viability assays. […] In the MDA-MB231 cellular model (Figure 3), the evaluated compounds successfully eliminated the cells’ capacity to establish colonies (for images, see Figures S3 and S4).
MDA-MB-231 (0.8 × 10^6 cells/well) and SUM-149 cells (1.5 × 10^6 cells/well) were plated on a 6-well plate. Two days later, cell media was changed to 5% FBS, and cells were incubated at 37 °C in a 5% CO2 atmosphere for 1 h before the vehicle (0.1% DMSO) or compound (5–10μM) was added. After 72 h of treatment, cells were trypsinized and reseeded at 800 cells/mL (MDA-MB231) and 1200 cells/mL (SUM149) per well in 6-well plates. After 10 days of culture, the media was removed from the wells and washed once with cold PBS. The colonies were stained with 5 mL of 1% Crystal Violet for 30 min. The dishes were fixed by methanol, rinsed with water three times, and air-dried, and the colonies were counted using ImageJ version 1.5.4 (NIH, Bethesda, MD, USA).

MCF07 = details: cited from earlier work; for TI (therapeutic index) MCF07: EC50 BJ fibroblasts / EC50 MCF07; for IC50: read-out: Cytotoxicity IC50, MCF07, 72 h incubation, CellTiter-Glo, mean ± SD
[2] = tested on: several breast cancer cell lines; parameters: method as in PMID 36831660; details: range over the named compounds and cell lines (Table 1); cited from earlier work

For `CC(C)c1cc2c(cc1O)[C@@]1(C)CCCC(C)(C)[C@@H]1CC2` [Compound 1, ferruginol], the IC50 (human BJ fibroblasts) is listed as greater than 50 µM, the “TI (therapeutic index) MDA-MB231” value (MDA-MB231) is listed as greater than 6 and the IC50 (MDA-MB231) is listed as 8.3 ± 1.4 µM. The “Morphological changes (early apoptosis)” value [1] was “Membrane blebbing”, the IC50 (SUM149) was greater than 50 µM and the “Colony-forming ability of SUM149 cells” value (SUM149 cells) was “notable exceptions”. The “TI (therapeutic index) MCF07” value (MCF07) was greater than 3 and the IC50 (MCF07) was 19 ± 1.5 µM.
For `CC(C)C1=CC2=C(C(=O)C1=O)[C@@]1(C)CCC[C@@](C)(CN3C(=O)c4ccccc4C3=O)[C@@H]1CC2` [Compound 10], the IC50 (human BJ fibroblasts) is listed as 35.4 ± 5 µM, the “TI (therapeutic index) MDA-MB231” value (MDA-MB231) is listed as 13 and the IC50 (MDA-MB231) is listed as 2.8 ± 0.4 µM. The “Morphological changes (early apoptosis)” value [1] was “Membrane blebbing”, the “TI (therapeutic index) SUM149” value (SUM149; EC50 BJ fibroblasts / EC50 SUM149) was 24 and the “Effectiveness against SUM149 cell line (in words)” value (SUM149; conclusions, Table 1 values of these compounds ref 13) was “notable effectiveness”. The IC50 (SUM149) was 1.5 ± 0.4 µM, the “Colony-forming ability of SUM149 cells” value (SUM149 cells) was “notable exceptions” and the “TI (therapeutic index) MCF07” value (MCF07) was 15. The IC50 (MCF07) was 2.3 ± 1.1 µM and the therapeutic index range [2] was 6–43.
